From ChEMBL document CHEMBL1201862, “PubChem BioAssay data set” (2004)
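Protocol summary: plate cells (96-well), add compound at 5 concentrations, incubate 48 h, interpolate endpoints linearly. GI50 is the concentration that inhibits growth by half.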 Active and inactive are the calls of the source. Cut-off read from the data, not from the text of the source: active = GI50 up to about 1.1 µM and inactive = higher.

Assays:
Assay in all cases: NCI tumour cell line growth inhibition, 48 h
IGROV-1 = test system: IGROV-1
CAKI-1 = test system: CAKI-1
HCT-15 = test system: HCT-15
NCI-H226 = test system: NCI-H226
RXF 393 = test system: RXF 393
SK-MEL-5 = test system: SK-MEL-5
SN12C = test system: SN12C
LOX IMVI = test system: LOX IMVI
786-0 = test system: 786-0
K562 = test system: K562
HCT-116 = test system: HCT-116
EKVX = test system: EKVX
MDA-MB-231 = test system: MDA-MB-231
T47D = test system: T47D
HOP-92 = test system: HOP-92
UO-31 = test system: UO-31
UACC-257 = test system: UACC-257
A549 = test system: A549
MDA-MB-435 = test system: MDA-MB-435
NCI-H522 = test system: NCI-H522
M14 = test system: M14
OVCAR-5 = test system: OVCAR-5
SNB-19 = test system: SNB-19
U-251 = test system: U-251
UACC-62 = test system: UACC-62
COLO 205 = test system: COLO 205
BT-549 = test system: BT-549
CCRF-CEM = test system: CCRF-CEM
HT-29 = test system: HT-29
ACHN = test system: ACHN
SNB-75 = test system: SNB-75
A498 = test system: A498
OVCAR-8 = test system: OVCAR-8
MOLT-4 = test system: MOLT-4
RPMI-8226 = test system: RPMI-8226
Hs-578T = test system: Hs-578T
HOP-62 = test system: HOP-62
OVCAR-3 = test system: OVCAR-3
SF-295 = test system: SF-295
PC-3 = test system: PC-3
TK-10 = test system: TK-10
SK-OV-3 = test system: SK-OV-3
SR = test system: SR
DU-145 = test system: DU-145
HL-60 = test system: HL-60
NCI-H460 = test system: NCI-H460
SW-620 = test system: SW-620
KM12 = test system: KM12
SF-268 = test system: SF-268
OVCAR-4 = test system: OVCAR-4
Malme-3M = test system: Malme-3M
MCF7 = test system: MCF7
MDA-N = test system: MDA-N
NCI/ADR-RES = test system: NCI/ADR-RES
SF-539 = test system: SF-539
NCI-H23 = test system: NCI-H23
SK-MEL-2 = test system: SK-MEL-2
HCC 2998 = test system: HCC 2998
SK-MEL-28 = test system: SK-MEL-28

`Cc1nn(-c2ccccc2)c2c1C(c1cc3ccccc3nc1Cl)NC(=S)N2` (stereo not drawn) was tested, and the GI50 (IGROV-1) was 12 µM (inactive), the GI50 (CAKI-1) was 59.4 µM (inactive) and the GI50 (HCT-15) was 31.8 µM. For the same molecule, the GI50 (NCI-H226) was > 100 µM (inactive), the GI50 (RXF 393) was 26.3 µM (inactive) and the GI50 (SK-MEL-5) was 58.6 µM (inactive). The GI50 (SN12C) was 78.3 µM (inactive), the GI50 (LOX IMVI) was 22.6 µM (inactive) and the GI50 (786-0) was 33 µM (inactive). For the same molecule, the GI50 (K562) was 39.5 µM (inactive), the GI50 (HCT-116) was 36.1 µM (inactive) and the GI50 (EKVX) was 92.7 µM (inactive). For the same molecule, the GI50 (MDA-MB-231) was > 100 µM (inactive), the GI50 (T47D) was > 100 µM (inactive) and the GI50 (HOP-92) was 18.2 µM (inactive). For the same molecule, the GI50 (UO-31) was 20.8 µM (inactive), the GI50 (UACC-257) was > 100 µM (inactive) and the GI50 (A549) was > 100 µM (inactive). For the same molecule, the GI50 (MDA-MB-435) was 29 µM (inactive), the GI50 (NCI-H522) was 14.3 µM (inactive) and the GI50 (M14) was > 100 µM (inactive). The GI50 (OVCAR-5) was > 100 µM (inactive), the GI50 (SNB-19) was 57.3 µM (inactive) and the GI50 (U-251) was 23.4 µM (inactive). The GI50 (UACC-62) was 76.7 µM (inactive), the GI50 (COLO 205) was > 100 µM (inactive) and the GI50 (BT-549) was 47.4 µM (inactive). The GI50 (CCRF-CEM) was 31.9 µM (inactive), the GI50 (HT-29) was 44.9 µM (inactive) and the GI50 (ACHN) was 54.2 µM (inactive). The GI50 (SNB-75) was 82.2 µM (inactive), the GI50 (A498) was 71 µM (inactive) and the GI50 (OVCAR-8) was 27.9 µM (inactive). The GI50 (MOLT-4) was 29.4 µM (inactive), the GI50 (RPMI-8226) was 20.7 µM (inactive) and the GI50 (Hs-578T) was 37.7 µM (inactive). The GI50 (HOP-62) was > 100 µM (inactive), the GI50 (OVCAR-3) was 54 µM (inactive) and the GI50 (SF-295) was 43.4 µM (inactive). The GI50 (PC-3) was 67.1 µM (inactive), the GI50 (TK-10) was 58.5 µM (inactive) and the GI50 (SK-OV-3) was 97.5 µM (inactive). The GI50 (SR) was 44.6 µM (inactive), the GI50 (DU-145) was > 100 µM (inactive) and the GI50 (HL-60) was 35.5 µM (inactive). For the same molecule, the GI50 (NCI-H460) was > 100 µM (inactive), the GI50 (SW-620) was 30.1 µM (inactive) and the GI50 (KM12) was 30.7 µM (inactive). The GI50 (SF-268) was 34.8 µM (inactive), the GI50 (OVCAR-4) was 65.3 µM (inactive) and the GI50 (Malme-3M) was > 100 µM (inactive). For the same molecule, the GI50 (MCF7) was 38 µM (inactive), the GI50 (MDA-N) was 45.7 µM (inactive) and the GI50 (NCI/ADR-RES) was 46.3 µM (inactive). The GI50 (SF-539) was 24.8 µM (inactive), the GI50 (NCI-H23) was 67.3 µM (inactive) and the GI50 (SK-MEL-2) was 14.5 µM (inactive).

In the case of `O=C1CSC(c2ccc([N+](=O)[O-])cc2)N1c1ccc(-c2ccc(-n3c(-c4ccccc4)nc4ccccc4c3=O)cc2)cc1` (stereo not drawn), the GI50 (CAKI-1) is reported as > 100 µM (inactive), the GI50 (HCT-15) is reported as 33.7 µM and the GI50 (NCI-H226) is reported as 56.1 µM (inactive). The GI50 (SK-MEL-5) was 17.3 µM (inactive), the GI50 (SN12C) was > 100 µM (inactive) and the GI50 (LOX IMVI) was 52.5 µM (inactive). For the same molecule, the GI50 (786-0) was 70.8 µM (inactive), the GI50 (K562) was 34.4 µM (inactive) and the GI50 (HCT-116) was 60.5 µM (inactive). The GI50 (EKVX) was 38.5 µM (inactive), the GI50 (MDA-MB-231) was 49.8 µM (inactive) and the GI50 (T47D) was 21.5 µM (inactive). For the same molecule, the GI50 (HOP-92) was 41.7 µM (inactive), the GI50 (UO-31) was 46.8 µM (inactive) and the GI50 (UACC-257) was > 100 µM (inactive). For the same molecule, the GI50 (A549) was 57 µM (inactive), the GI50 (MDA-MB-435) was 59.7 µM (inactive) and the GI50 (NCI-H522) was > 100 µM (inactive). For the same molecule, the GI50 (M14) was 59 µM (inactive), the GI50 (OVCAR-5) was > 100 µM (inactive) and the GI50 (SNB-19) was > 100 µM (inactive). The GI50 (U-251) was 83 µM (inactive), the GI50 (UACC-62) was 35.1 µM (inactive) and the GI50 (COLO 205) was 43.5 µM (inactive). For the same molecule, the GI50 (BT-549) was 53.3 µM (inactive), the GI50 (CCRF-CEM) was 25.7 µM (inactive) and the GI50 (HT-29) was 49.7 µM (inactive). The GI50 (ACHN) was 56.5 µM (inactive), the GI50 (A498) was > 100 µM (inactive) and the GI50 (OVCAR-8) was 46.9 µM (inactive). For the same molecule, the GI50 (MOLT-4) was 20.4 µM (inactive), the GI50 (RPMI-8226) was 32.5 µM (inactive) and the GI50 (Hs-578T) was > 100 µM (inactive). The GI50 (HOP-62) was > 100 µM (inactive), the GI50 (OVCAR-3) was 53.1 µM (inactive) and the GI50 (SF-295) was 85.3 µM (inactive). For the same molecule, the GI50 (PC-3) was 36.4 µM (inactive), the GI50 (TK-10) was 66.2 µM (inactive) and the GI50 (SK-OV-3) was > 100 µM (inactive). For the same molecule, the GI50 (SR) was 18.7 µM (inactive), the GI50 (HCC 2998) was 35.7 µM (inactive) and the GI50 (DU-145) was > 100 µM (inactive). For the same molecule, the GI50 (HL-60) was 26.5 µM (inactive), the GI50 (NCI-H460) was 38.4 µM (inactive) and the GI50 (SW-620) was > 100 µM (inactive). The GI50 (KM12) was 21.4 µM (inactive), the GI50 (SF-268) was > 100 µM (inactive) and the GI50 (OVCAR-4) was 34.2 µM (inactive). For the same molecule, the GI50 (Malme-3M) was 58.1 µM (inactive), the GI50 (SK-MEL-28) was 81.3 µM (inactive) and the GI50 (MCF7) was 33.1 µM (inactive). For the same molecule, the GI50 (MDA-N) was 75 µM (inactive), the GI50 (NCI/ADR-RES) was 43.9 µM (inactive) and the GI50 (SF-539) was > 100 µM (inactive). The GI50 (NCI-H23) was > 100 µM (inactive) and the GI50 (SK-MEL-2) was 44.2 µM (inactive).

For `CC(C)(C)c1cc(C2=NNC(c3ccccc3)C2)cc(C(C)(C)C)c1O` (stereo not drawn), the GI50 (IGROV-1) was 15.7 µM (inactive), the GI50 (CAKI-1) was 12.9 µM (inactive) and the GI50 (HCT-15) was 13.8 µM. For the same molecule, the GI50 (NCI-H226) was 17.2 µM (inactive), the GI50 (RXF 393) was 10.1 µM (inactive) and the GI50 (SK-MEL-5) was 11 µM (inactive). The GI50 (SN12C) was 16.6 µM (inactive), the GI50 (LOX IMVI) was 15.9 µM (inactive) and the GI50 (786-0) was 14.3 µM (inactive). For the same molecule, the GI50 (HCT-116) was 14.2 µM (inactive), the GI50 (EKVX) was 16.1 µM (inactive) and the GI50 (MDA-MB-231) was 14.2 µM (inactive). For the same molecule, the GI50 (T47D) was 10.2 µM (inactive), the GI50 (HOP-92) was 14.9 µM (inactive) and the GI50 (UO-31) was 15 µM (inactive). The GI50 (UACC-257) was 14.3 µM (inactive), the GI50 (A549) was 15.3 µM (inactive) and the GI50 (MDA-MB-435) was 12.8 µM (inactive). For the same molecule, the GI50 (NCI-H522) was 14.7 µM (inactive), the GI50 (M14) was 17.2 µM (inactive) and the GI50 (OVCAR-5) was 21.1 µM (inactive). The GI50 (SNB-19) was 18 µM (inactive), the GI50 (U-251) was 15.5 µM (inactive) and the GI50 (UACC-62) was 13.5 µM (inactive). For the same molecule, the GI50 (COLO 205) was 17.5 µM (inactive), the GI50 (BT-549) was 17.1 µM (inactive) and the GI50 (HT-29) was 17.7 µM (inactive). The GI50 (ACHN) was 16.3 µM (inactive), the GI50 (SNB-75) was 10.3 µM (inactive) and the GI50 (A498) was 15.3 µM (inactive). The GI50 (OVCAR-8) was 16.7 µM (inactive), the GI50 (MOLT-4) was 16.6 µM (inactive) and the GI50 (RPMI-8226) was 15 µM (inactive). For the same molecule, the GI50 (Hs-578T) was 19.1 µM (inactive), the GI50 (HOP-62) was 17.1 µM (inactive) and the GI50 (OVCAR-3) was 3.88 µM (inactive). For the same molecule, the GI50 (SF-295) was 16.5 µM (inactive), the GI50 (PC-3) was 14.6 µM (inactive) and the GI50 (TK-10) was 15.9 µM (inactive). The GI50 (SK-OV-3) was 18.5 µM (inactive), the GI50 (SR) was 5.58 µM (inactive) and the GI50 (DU-145) was 15.5 µM (inactive). The GI50 (NCI-H460) was 15.4 µM (inactive), the GI50 (SW-620) was 15.7 µM (inactive) and the GI50 (KM12) was 13.6 µM (inactive). For the same molecule, the GI50 (SF-268) was 17 µM (inactive), the GI50 (OVCAR-4) was 14.2 µM (inactive) and the GI50 (Malme-3M) was 17.9 µM (inactive). For the same molecule, the GI50 (SK-MEL-28) was 15.9 µM (inactive), the GI50 (MCF7) was 13.8 µM (inactive) and the GI50 (MDA-N) was 12.6 µM (inactive). For the same molecule, the GI50 (NCI/ADR-RES) was 17 µM (inactive), the GI50 (SF-539) was 19.8 µM (inactive) and the GI50 (NCI-H23) was 17.2 µM (inactive). For the same molecule, the GI50 (SK-MEL-2) was 14.8 µM (inactive).
